# Data from patent US20240252446A1, “DERIVATIZED COLLAGEN-HYALURONIC ACID BASED IMPLANTS FOR SUSTAINED DELIVERY OF OPHTHALMIC DRUGS” (SUSTAINED DRUG DELIVERY LLC, priority 2023, published 2024).
# Experiment: Evaluation of active agent release in vitro from polymerized collagen-hyaluronic acid film (HPLC)
# Type: physicochemical
# Details: from UV-polymerized (18 min, 254 nm) collagen-hyaluronic acid film, 0.01 M phosphate buffer pH 7.4, 37° C., 1 hour to 3 months
# Protocol: Four round pieces of 35 mm diameter polymerized film were cut into 4 sections and placed in 1.5 mL vials containing 1 mL of 0.01 M phosphate buffer at a pH of 7.4. The 16 vials were placed in a controlled temperature chamber at 37° C. Five aliquots of 100 μL were removed from 2 vials each at 1 hour, 3 days, 7 days, 2 weeks, 1 month, 2 months, and 3 months. Two vials were reserved for additional time periods if release was still noted at 3 months. Four vials of buffer only were used for controls.
# Active agent concentration (e.g., Latanoprost) was measured by HPLC at Millennium Research Laboratories. Detection at nanogram levels was validated using active agent (e.g., Latanoprost) standards and concentration curves.
smiles,measurement,value
"CC(C)OC(=O)CCC/C=C\C[C@@H]1[C@@H](CC[C@@H](O)CCc2ccccc2)[C@H](O)C[C@@H]1O [Latanoprost, 13,14-dihydro-17-phenyl-18,19,20-trinor-prostaglandin F2a-1-isopropyl ester]",Active agent release profile,"initial bolus release at 1 day followed by sustained, zero order release through 3 months"
